Measurements from US20240325489A1, “CONNEXIN 43 FOR USE IN THE TREATMENT OF RETINOBLASTOMA PROTEIN POSITIVE TUMOURS” (FUNDACIÓN PROFESOR NOVOA SANTOS, priority 2021, published 2024).
Entries after “also recorded” stand apart in the source; their conditions may differ.

Key:
T47D cells [1] = assay: IC50 calculation, Palbociclib dose-response, crystal violet; assay type: cell-based; details: Homo sapiens, 168 h; T47D (lower Cx43 than MCF7-Cx43), 7 days treatment
Experimental: Rb positive cell lines MCF7 (breast cancer), T47D (breast cancer) and A375 (melanoma) were cultured in Dulbecco's modified Eagle's medium (DMEM) (Lonza) supplemented with 10% fetal bovine serum (FBS) (Gibco, Thermo Fisher Scientific) and 100 U/mL penicillin and 100 μg/ml streptomycin (Gibco, Thermo Fisher Scientific). HT29 (colon adenocarcinoma) was cultured in McCoy'S 5A medium (Sigma-Aldrich) supplemented with 10% FBS and 100 U/mL penicillin and 100 μg/ml streptomycin. Cells were maintained at 37° C. in 5% CO2 humidified incubator (SANYO CO2). The medium was changed every 2 days. IC50s were calculated using cell cultures from MCF7 (EV and Cx43) and T47D cells treated with different concentrations of the CDK4/6 inhibitor Palbociclib for 7 days. Cells were stained with crystal violet and cell number was assessed measuring the absorbance at 570 nm.

[2] = test system: MCF7 cells expressing the vector control (EV); assay: as above; assay type: cell-based; details: Homo sapiens, 168 h; MCF7 EV (no Cx43), 7 days treatment, absorbance 570 nm
Experimental: (§1) Rb positive cell lines MCF7 (breast cancer), T47D (breast cancer) and A375 (melanoma) were cultured in Dulbecco's modified Eagle's medium (DMEM) (Lonza) supplemented with 10% fetal bovine serum (FBS) (Gibco, Thermo Fisher Scientific) and 100 U/mL penicillin and 100 μg/ml streptomycin (Gibco, Thermo Fisher Scientific). HT29 (colon adenocarcinoma) was cultured in McCoy'S 5A medium (Sigma-Aldrich) supplemented with 10% FBS and 100 U/mL penicillin and 100 μg/ml streptomycin. Cells were maintained at 37° C. in 5% CO2 humidified incubator (SANYO CO2). The medium was changed every 2 days.
(§2) Retroviral infection was used to overexpress Cx43 in MCF7 cells. Retroviral particles were generated by transfecting pLPCX-Cx43 and pLPCX-EV plasmids, kindly donated by Dr. Trond Aasen, and retroviral helper plasmids (vsvg and gag-pol) with Polyethylenimine (PEI) in HEK293T packaging cells for 48 h. The supernatant was then filtered with 0.45 μm filters and applied to MCF7 cells in the presence of 4 μg/ml polybrene (hexadimethrine bromide; Sigma-Aldrich) following 3 rounds of infection. […]
(§3) IC50s were calculated using cell cultures from MCF7 (EV and Cx43) and T47D cells treated with different concentrations of the CDK4/6 inhibitor Palbociclib for 7 days. Cells were stained with crystal violet and cell number was assessed measuring the absorbance at 570 nm.

[3] = test system: MCF7 cells overexpressing Cx43 (MCF7 Cx43); assay: as above; assay type: cell-based; details: Homo sapiens, 168 h; MCF7 containing Cx43, 7 days treatment, absorbance 570 nm
Experimental: as §1, §2, §3

MCF7 cells [4] = assay: Colony formation assay; assay type: cell-based, human; details: for reduction in cell proliferation: FIG. 3c, MCF7, 500 nM Palbociclib 7 days, compared with untreated control
Experimental: Retroviral infection was used to overexpress Cx43 in MCF7 cells. Retroviral particles were generated by transfecting pLPCX-Cx43 and pLPCX-EV plasmids, kindly donated by Dr. Trond Aasen, and retroviral helper plasmids (vsvg and gag-pol) with Polyethylenimine (PEI) in HEK293T packaging cells for 48 h. The supernatant was then filtered with 0.45 μm filters and applied to MCF7 cells in the presence of 4 μg/ml polybrene (hexadimethrine bromide; Sigma-Aldrich) following 3 rounds of infection. Cells were subsequently selected with the appropriate antibiotic resistance using 0.5 μg/ml puromycin (Sigma).
(§4) Cells were treated with 250 nM of Palbociclib (PD0332991) (APExBIO), 500 nM Abemaciclib (LY2835219) (Selleckchem) or 500 nM Ribociclib (LEE011) (Selleckchem) for 7 days. All treatments were done using DMEM supplemented with 10% FBS and 100 U/mL penicillin and 100 μg/ml streptomycin. Media was replaced every 2 days.
(§5) Colony formation assays were performed plating 5×10^3 to 5×10^4 cells per well onto 6-12 well plates and grown for 7-15 days. Medium was replaced every 48 h. The cells were washed with warm Saline Solution and fixed with cold 4% PFA for 15 min. Cells were washed with PBS and stained with 0.05% of crystal violet (Sigma-Aldrich) for 15 min. After staining, the cells were washed with distilled water and dried at room temperature. The colonies were quantified by diluting crystal violet in 30% acetic acid and 100 μL of the solution was collected to measure the absorbance at 570 nm using a NanoQuant microplate reader Infinite M200 (TECAN).
HEK 293T cells were seeded onto 162 cm^2 culture flasks (Corning, Sigma-Aldrich) until confluence (80%-90%). Cells were washed three times with PBS and cultured for 48 h in DMEM 0% FBS. Supernatants were collected and centrifuged at 1800 rpm for 5 min. Pellet was discarded and supernatants were filtered through a 0.22 μm filter and then the filtered supernatants were centrifuged at 100,000 g for 90 min at 4° C. (Optimal-90K ultracentrifuge) using 70 Ti rotor (Beckman Coulter). Supernatants were discarded and pellet-containing sEVs were washed with PBS and centrifuged at 100,000 g for 90 min at 4° C. The pellet with sEVs was resuspended in culture medium. Target cells (MCF7 or T47D cells) were treated with sEVs in the presence/absence of CDK 4/6 inhibitors for 48 h. 3 rounds of treatment were performed. For NTA Nanosight NS300 analysis and sEV protein and RNA content determination, a second ultracentrifugation with PBS was performed, and sEV pellet was resuspended in PBS. […]

A375 melanoma cells = assay: Colony formation assay; assay type: cell-based, human; details: A375 Cx43 vs EV, 7 days, 250 nM Palbociclib, 500 nM Abemaciclib and Ribociclib
Experimental: (§6) Cell lines (A375 and HT29) were transfected by electroporation to overexpress Cx43. The Amaxa® Cell Line Nucleofector® Kit V (Lonza) was used to transfect cells in a Cell Line Nucleofector™ Device (Lonza). A million cells were harvested and resuspended in 100 μL of Nucleofector® solution. 3 μg of the corresponding plasmid was added, and the mixture was transferred into an electroporation cuvette using the U-28 program. Cell lines were transfected with pIRESpuro2 plasmid construct (Clontech) containing the human Cx43 sequence, kindly donated by Arantxa Tabernero (Institute of Neuroscience of Castilla y León, University of Salamanca, Spain). The transfected cells were seeded in culture medium and 24 hours (h) post-transfection the medium was replaced with complete medium containing puromycin dihydrochloride (Tocris, Bioscience) at different concentrations depending of the cell line (0.5 μg/mL to 2 μg/mL). […]
(§7) Colony formation assays were performed plating 5×10^3 to 5×10^4 cells per well onto 6-12 well plates and grown for 7-15 days. […] The colonies were quantified by diluting crystal violet in 30% acetic acid and 100 μL of the solution was collected to measure the absorbance at 570 nm using a NanoQuant microplate reader Infinite M200 (TECAN).

T47D cells [5] = assay: Colony formation assay; assay type: cell-based; details: 7 days treatment
Experimental: as §4, §5
HEK 293T cells were seeded onto 162 cm^2 culture flasks (Corning, Sigma-Aldrich) until confluence (80%-90%). Cells were washed three times with PBS and cultured for 48 h in DMEM 0% FBS. Supernatants were collected and centrifuged at 1800 rpm for 5 min. Pellet was discarded and supernatants were filtered through a 0.22 μm filter and then the filtered supernatants were centrifuged at 100,000 g for 90 min at 4° C. […]

[6] = test system: HT29 colon adenocarcinoma cells; assay: Proliferation of colon cells (colony formation); assay type: cell-based; details: HT29 Cx43 vs EV, 7 days, 250 nM Palbociclib, 500 nM Abemaciclib and Ribociclib
Experimental: as §6, §7

MCF7 cells [7] = assay: Senescence and apoptosis markers (western-blot, qPCR, SA-β-galactosidase); assay type: cell-based, human
Experimental: Cells were grown onto coverslips and fixed with 4% paraformaldehyde (PFA) for 10 min at room temperature (RT). Cells were then washed twice with PBS and permeabilized by incubation with 0.2% Triton X-100 (Sigma) in PBS for 10 min at RT. After a PBS wash, cells were blocked 30 min at RT using 1% BSA in PBS supplemented with 0.1% Tween-20 (PBST). Primary antibodies were diluted in 1% BSA-PBST and incubated overnight (anti-Cx43 (#C6219), Sigma-Aldrich 1:1000; anti-Tubulin (T9026). Cells were then washed with PBS and incubated with secondary antibodies for 1 h at RT. HRP-conjugated secondary antibodies used were anti-mouse (NA-931, Sigma-Aldrich) and anti-rabbit ([…], Sigma-Aldrich). Cells were washed with PBS and fixed with 4% paraformaldehyde for 15 mins at room temperature. […] (Senescence Cells Histochemical Staining Kit Ref […]; Sigma). Cells were imaged using a light microscope at 20× magnification and single representative images of each well were taken. Total RNA was isolated from cells using TRI Reagent® RT (Vitro Bio) according to manufacturer's protocol. 200 μL of chloroform were added to the tubes and samples were incubated for 10 min at 4° C. and then centrifugated at 14,000 g for 15 min at 4° C. After centrifugation, the aqueous phase (upper) are obtained and transferred to a new tube with 500 μL of isopropanol and samples were vortexed 15 sec. The tubes centrifugated at 14,000 g for 15 min at 4° C. Supernatant was discarded, and the RNA pellets were washed with 1 mL of 70% ethanol and centrifugated for 5 min at 7,000 g at 4° C. The supernatants were discarded, and RNA pellets were air dry. RNA was treated with DNase I, RNase free (Thermo Fisher Scientific) following manufacturer's protocol. RNA samples were quantified in a Nanodrop® ND-1000 (Thermo Fisher Scientific). 1 μg of RNA was used to synthesize complementary DNA (cDNA) with the SuperscriptTM IV VILOTM Master Mix (Invitrogen, Thermo Fisher Scientific) following manufacturer's protocol. cDNA samples are quantified in a Nanodrop® ND-1000 (Thermo Fisher Scientific) and resuspended in DNase/RNase/Protease-free water (Sigma-Aldrich). 5 μL of cDNA (1 μg) were mixed with 0.5 μL of primer mix (10 μM each primer), 10 μL of Applied BiosystemsTM PowerUPTM SYBRTM Green Master Mix (Applied Biosystems, Thermo Fisher Scientific) and complete with dH2O until 20 μL per well on LightCycler® 480 System (Roche). The program consisted on a first denaturing cycle of 10 min at 95° C. followed by 30-55 amplification cycles for 10 seconds (sec) at 95° C., 30 sec at 60° C. for annealing and 12 sec at 72° C. for extension. The primers used are listed below: […]

MCF7 cells [8] = assay: Hemichannel activity (ATP release) and gap-junction communication (parachute assay); assay type: cell-based, human; details: MCF7 upon Cx43 restoration vs EV

## CC(=O)c1c(C)c2cnc(Nc3ccc(N4CCNCC4)cn3)nc2n(C2CCCC2)c1=O [Palbociclib]
T47D cells [1]
  IC50: 121 nM
[2]
  IC50: 282 nM
[3]
  IC50: 66.8 nM
MCF7 cells [4]
  reduction in cell proliferation: around 40%

## CN(C)C(=O)c1cc2cnc(Nc3ccc(N4CCNCC4)cn3)nc2n1C1CCCC1 [Ribociclib]
A375 melanoma cells
  effect of Cx43 overexpression on inhibitor efficacy (reduction in proliferation): increases the efficacy
T47D cells [5]
  colony formation capacity: effectively respond
[6]
  effect of Cx43 overexpression on inhibitor efficacy (reduction in proliferation): increases the efficacy
MCF7 cells [4]; MCF7 Cx43 vs EV, 7 days, colony formation
  effect of Cx43 overexpression on the CDK4/6 inhibitor's effect on cell proliferation: enhances the effect

## Cx43: connexin 43 overexpressed in tumour cells by retroviral vector or plasmid
MCF7 cells [7]; MCF7, SA-β-galactosidase staining
  β-galactosidase activity: increases β-galactosidase activity
MCF7 cells [7]; MCF7, western-blot
  apoptotic markers Bax and Bcl2 protein: increases the pro-apoptotic protein Bax and reduces Bcl2
MCF7 cells [7]; MCF7, western-blot, vs vector control (EV)
  levels of senescent markers p21 and p53: increases the levels of the senescent markers p21 and p53
MCF7 cells [7]; MCF7 overexpressing Cx43 vs EV
  SASP factors IL6, IL8, MMP9 (qPCR): increases the secretion of different cytokines such as IL6, IL8 and MMP9
MCF7 cells [4]
  reduction in cell proliferation: 50%
MCF7 cells [4]; MCF7, 7 days
  cell proliferation / colony formation capacity: induces proliferation arrest; also recorded: significantly reduced cell proliferation and colony formation capacity
MCF7 cells [8]
  hemichannels activity and gap-junction intercellular communication: increase in hemichannels activity and gap-junction intercellular communication
